{"source": "patent US20240279201A1", "about": "“DUAL WNT SIGNALING PATHWAY INHIBITORS AND AMPK ACTIVATORS FOR TREATMENTS OF DISEASE” (priority 2021, published 2024)", "key": {"Axin 1": {"biological_target": "Axin 1 (Homo sapiens (Human), UniProt O15169)", "assay": "Western blotting of Axin 1 in HEK293 cells", "assay_type": "cell-based", "details": "100 nM, 24 h", "experimental": "FIG. 6A-FIG. 6E illustrate the development of Axin stabilizers with dual activities of Wnt inhibition and AMPK activation. […] HEK293 cells were used. B&C: 100 nM compounds, 24 h. FIG. 6D is a table showing the activity profile of YA6060. F=bioavailability; soubility is aqueous solubility.\nA dual-luciferase gene reporter assay was used to test inhibitory activities of new compounds on Wnt signaling. […] Axin is also reported to form a complex with AMPK and its upstream kinase LKB1 (FIG. 12A and FIG. 12B) to facilitate AMPK activation. Therefore, the effects of new compounds on AMPK was examined. […] YA6060 and its analogs had dual activities of potent Wnt signaling inhibition and AMPK activation, which were dependent on the levels of scaffolding protein Axin."}, "[1]": {"assay": "Cytotoxicity (CC50) during the luciferase gene reporter assay", "assay_type": "cell-based", "details": "human, HEK293 cells; short treatment duration of the luciferase gene reporter assay"}, "[2]": {"assay": "Pharmacokinetic (PK) studies, oral dose", "details": "C57/BL6, mouse, blood, 5 mg/kg", "experimental": "The ADMET and PK properties of YA6060 was determined.\nPK/Tox. The four selected compounds from in vitro evaluation above are subjected to PK and toxicity assessment in C57/BL6 mice. […] Compound concentrations is determined by LC/MS/MS. PK analysis is carried out on Phoenix Winnolin using non-compartmental analysis and compartment models. Compound accumulation in major tissues, including liver, kidney, heart, brain and intestine, are quantified. […] For study ii, a half number of mice per group are sacrificed immediately after the 3-week course and the remaining after a 2-week washout period to assess delayed toxicity. In toxicity studies, blood is collected upon euthanasia for liver and renal chemistries and complete blood counts, and major organs harvested and examined macro- and microscopically by veterinarian pathologists. It is expected that an understanding of PK properties, such as bioavailability, AUC, clearance, and toxic effects, such as general tolerance and specific toxicity in the liver, kidney, other major organs, and particularly Wnt-dependent tissues, such as intestine, stomach, and skin is established for these selected compounds."}, "TGF-β-treated LX-2 cells": {"tested_on": "TGF-β-treated LX-2 cells", "assay": "Anti-fibrotic efficacy in TGF-β-treated LX-2 cells", "assay_type": "cell-based", "details": "24 hours", "experimental": "FIG. 9A-FIG. 9C illustrate the anti-fibrotic efficacy of YA6060 in LX-2 cells. LX-2 cells were exposure to TGF-beta with and without different concentrations of YA6060 for 24 hours. FIG. 9A is a gel illustrating Western blot results. FIG. 9B and FIG. 9C are graphs of experimental data illustrating RT-PCR results. FIG. 14A-FIG. 14C illustrate the anti-fibrotic efficacy of YA6060 in LX-2 cells. The effect of YA6060 treatment on the expression of fibrotic markers in LX-2 cells was examined. LX-2 cells were treated with TGF-beta to model fibrosis. FIG. 14A is an image of a Western blot illustrating protein expression of collagen 1, vimentin, and alpha-SMA. […] FIG. 14C is a graph of experimental data illustrating mRNA expression of genes associated with inflammation by RT-PCR. The cells were treated with the indicated concentrations of YA6060 for 24 hours. *P<0.05, **P<0.01. […] The effect of YA6060 treatment on the expression of fibrotic markers in LX-2 cells was examined. LX-2 cells were treated with TGF-beta to model fibrosis. Protein expression of collagen 1, vimentin, and alpha-SMA by Western blotting (FIG. 14A). mRNA expression of collagen 1, vimentin, and alpha-SMA by RT-PCR was examined (FIG. 14B). mRNA expression of genes associated with inflammation by RT-PCR was examined (FIG. 14C). The cells were treated with the indicated concentrations of YA6060 for 24 hours. *P<0.05, **P<0.01. […]"}, "HT29 cells": {"tested_on": "HT29 cells", "assay": "Viability of HT29 cells", "assay_type": "cell-based", "details": "Homo sapiens, HT-29, read-out: IC50, cell viability"}, "[3]": {"tested_on": "Wnt/β-Catenin signaling pathway", "assay": "Wnt signaling luciferase (TOPflash) reporter gene assay", "assay_type": "cell-based", "details": "luciferase reporter gene assay; mean of three independent experiments; read-out: IC50 (nM) to inhibit the Wnt signaling activity", "excerpt": "A dual-luciferase gene reporter assay was used to test inhibitory activities of new compounds on Wnt signaling. […] Therefore, the effects of new compounds on AMPK was examined. […]"}}, "note": "Several values for one entry are separate records, joined by “and”; a condition that tells them apart may be missing. Equal entries are not always repeated."}
{"smiles": "Cc1ccccc1-n1nnc(C(=O)Nc2ccc3cc(CN4CCNCC4)ccc3n2)c1C", "note": "[YA6060]", "values": [{"measurement": "level of Axin 1", "setting": "Axin 1", "value": "stabilizing"}, {"measurement": "CC50", "setting": "[1]", "value": "> 92000", "unit": "nM"}, {"measurement": "half-life", "setting": "[2]; oral", "value": 2.67, "unit": "h"}, {"measurement": "Cmax", "setting": "[2]; po", "value": 24000, "unit": "ng/mL"}, {"measurement": "Tmax", "setting": "[2]; po", "value": 1.6, "unit": "h"}, {"measurement": "bioavailability", "setting": "[2]; po", "value": 75, "unit": "%"}, {"measurement": "half-life", "setting": "[2]; po", "value": 2.67, "unit": "h"}, {"measurement": "expression of fibrosis and inflammation markers", "setting": "TGF-β-treated LX-2 cells", "value": "significantly reduced the expression of fibrosis markers"}, {"measurement": "IC50", "setting": "HT29 cells", "value": 8600, "unit": "nM"}, {"measurement": "IC50", "setting": "[3]", "value": "4.3 nM and 4 nM"}]}
